Results published in US20130225623A1, “Methods of Treating Psychiatric or Neurological Disorders with MGLUR Antagonists” (MOUNT SINAI SCHOOL OF MEDICINE, priority 2010, published 2013).
Several values for one entry are separate records, joined by “and”; a condition that tells them apart may be missing. Equal entries are not always repeated.

Key:
Type in all cases: cell-based, mouse
[1] = tested on: field EPSPs in hippocampal slices (area CA1); group I mGluRs; assay: DHPG-induced long-term depression (mGluR-LTD), hippocampal slice electrophysiology; settings: for effect of mGluR blockade on DHPG-induced LTD: Cyfip1 heterozygotes, slices incubated with antagonist and DHPG (MPEP 10 μM; LY367385 100 μM); for depression in synaptic transmission (field EPSP slope): at 30 min of application
Method: (§1) Hippocampal slices (350 μm) were prepared from 4-6 week old heterozygous mice and their wild-type littermate controls. Slices were perfused with Ringer's solution containing (in mM): NaCl, 125.0; KCl, 2.5; MgSO4, 1.3; NaH2PO4, 1.0; NaHCO3, 26.2; CaCl2, 2.5; glucose, 11.0. The Ringer's solution was bubbled with 95% O2/5% CO2, at 32° C., during extracellular recordings (electrode solution: 3 M NaCl). Slices were maintained for 1 hr prior to establishment of a baseline of field excitatory postsynaptic potentials (fEPSPs) recorded from stratum radiatum in area CA1, evoked by stimulation of the Schaffer collateral-commissural afferents (100 μs pulses every 30 s) with bipolar tungsten electrodes placed into area CA3 (Bozdagi et al., 2000). Test stimulus intensity was adjusted to obtain fEPSPs with amplitudes that were one-half of the maximal response. The EPSP initial slope (mV/ms) was determined from the average waveform of four consecutive responses. Cycloheximide (60 μM, Sigma), dihydroxyphenylglycine (DHPG, 50 μM, Sigma), 2-methyl-6-phenylethynyl-pyridine (MPEP, 10 μM, Tocris), LY367385 (100 μM, Tocris), or rapamycin (20 nM, Enzo Life Sciences) were bath-applied for various durations as described in the Examples, below.
(§2) All experiments were performed in the presence of 100 μM 2-amino-5-phosphopentanoic acid (AP5). Paired-pulse responses were measured with interstimulus interval (ISI) of 50 ms, and are expressed as the ratio of the average responses to the second stimulation pulse (FP2) to the first stimulation pulse (FP1). LTP was induced by either a high-frequency stimulus (four trains of 100 Hz, 1 s stimulation separated by 5 min), a threshold levels of theta-burst stimulation (TBS) (5 bursts of four pulses at 100 Hz separated by 200 ms, (Lauterborn et al., 2007), or a single 100 Hz stimulation. To induce an mGluR-dependent LTD, Schaffer collaterals were stimulated by a paired-pulse low-frequency-stimulation (PP-LFS, 1 Hz for 20 min; 50 ms interstimulus interval (Huber et al., […]). DHPG-induced LTD was also used as described in the Examples, below
The mammalian target of rapamycin (mTOR) is an important regulator of translation in long-lasting forms of synaptic plasticity and it has been shown that DHPG-induced mGluR-LTD in hippocampal area CA1 is dependent on mTOR (see Richter and Klann, 2009). To determine whether mTOR is required for mGluR-LTD in Cyfip1 heterozygous mice, hippocampal slices were treated with DHPG in the presence of the mTOR inhibitor rapamycin.
Because mGluR5 activation is essential for mGluR-LTD induction, the effect of mGluR5 blockade on DHPG-induced LTD was examined. […] The effect of mGluR1 blockade on DHPG-induced LTD was also examined. […] The slices were next treated with both mGluR1 (LY367385) and mGluR5 (MPEP) antagonists.

[2] = tested on: field EPSPs at Schaffer collateral-CA1 synapses in acute hippocampal slices; assay: Paired-pulse low frequency stimulation (PP-LFS)-induced mGluR-LTD, hippocampal slice electrophysiology; settings: for effect on PP-LFS-induced LTD: cycloheximide 60 μM; for field EPSP slope: in the presence of cycloheximide (60 μM), at 60 min after PP-LFS
Method: as §1, §2
To examine the role of CYFIP1 in mGluR-LTD, field EPSPs were recorded at Schaffer collateral-CA1 synapses in acute hippocampal slices prepared from wild-type and Cyfip1 heterozygous mice.
One of the most striking abnormalities in experimental synaptic plasticity observed in the absence of FMRP is that mGluR-LTD is independent of protein synthesis in these animals. As the Cyfip1 heterozygotes have enhanced LTD, similar to what is observed in the absence of FMRP, mGluR-LTD in the presence of the protein synthesis inhibitor cycloheximide was examined.

[3] = tested on: field EPSPs in hippocampal slices (area CA1); assay: Protein synthesis-dependent LTP induced by high frequency stimulation (HFS), hippocampal slice electrophysiology

## Cc1cccc(C#Cc2ccccc2)n1 [MPEP, 2-methyl-6-(phenylethynyl)-pyridine]
[1]
  effect of mGluR blockade on DHPG-induced LTD: did not cause any change

## C[C@@H]1C[C@@H]([C@H](O)CC2CC(=O)NC(=O)C2)C(=O)[C@@H](C)C1 [cycloheximide]
[2]; Cyfip1 heterozygous animals
  effect on PP-LFS-induced LTD: not affected
[2]; Cyfip1 heterozygous slices
  field EPSP slope: 68.49±8.9 % of baseline
[2]; wild-type littermate controls
  effect on PP-LFS-induced LTD: inhibited LTD
[2]; wild-type slices
  field EPSP slope: 98.05±2.5 % of baseline
[1]; wild-type mice, 60 μM cycloheximide, DHPG 50 μM
  effect on DHPG-induced LTD: reduced LTD
[3]
  field EPSP slope: 99±8 % of baseline and 100.8±8.2 % of baseline
[3]; wild-type vs Cyfip1 heterozygous mice, cycloheximide 60 μM, rapamycin 20 nM
  inhibition of protein synthesis-dependent LTP, comparison between genotypes: did not differ between genotypes

## NC(C(=O)O)c1cc(O)cc(O)c1 (racemic) [DHPG, (RS)-3,5-dihydroxyphenylglycine]
[1]; Cyfip1 heterozygous mice, DHPG 50 μM
  depression in synaptic transmission (field EPSP slope): 70.5±6 % of baseline
[1]; wild-type mice, DHPG 50 μM
  depression in synaptic transmission (field EPSP slope): 81.2±3 % of baseline

## Cc1cc(C(=O)O)ccc1[C@H](N)C(=O)O [LY367385]
[1]
  effect of mGluR blockade on DHPG-induced LTD: did not cause any change
